Experimental data as given in ChEMBL document CHEMBL4002586, “Aurone Mannich base derivatives as promising multifunctional agents with acetylcholinesterase inhibition, anti-β-amyloid aggragation and neuroprotective properties for the treatment of Alzheimer's disease” (Eur J Med Chem, 2017).

Target: T1, Amine oxidase [flavin-containing] A (Homo sapiens, UniProt P21397)
T1 sequence (P21397 whole entry): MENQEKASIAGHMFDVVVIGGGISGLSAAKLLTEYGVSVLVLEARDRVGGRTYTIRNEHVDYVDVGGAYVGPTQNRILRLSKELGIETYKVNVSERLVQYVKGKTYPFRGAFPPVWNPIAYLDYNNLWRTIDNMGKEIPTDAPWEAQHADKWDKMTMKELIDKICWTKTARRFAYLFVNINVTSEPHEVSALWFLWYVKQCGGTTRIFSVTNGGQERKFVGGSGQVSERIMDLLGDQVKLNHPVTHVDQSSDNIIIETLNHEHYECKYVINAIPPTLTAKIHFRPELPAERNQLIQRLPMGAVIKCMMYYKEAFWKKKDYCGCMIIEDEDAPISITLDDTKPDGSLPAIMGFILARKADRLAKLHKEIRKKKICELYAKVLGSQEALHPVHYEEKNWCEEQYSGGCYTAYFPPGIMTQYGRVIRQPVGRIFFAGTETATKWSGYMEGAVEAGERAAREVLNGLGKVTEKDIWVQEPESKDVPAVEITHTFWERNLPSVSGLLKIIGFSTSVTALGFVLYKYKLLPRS
Assay: Inhibition of recombinant human MAO-A expressed in baculovirus infected BTI insect cells at 10 uM using kynuramine as substrate incubated for 30 mins by fluorescence assay relative to control
Conditions: 0.5 h

Compound	inhibition at 10 µM [%]
COc1cc2c(cc1OC)C(=O)/C(=C/c1ccc(CN(C)Cc3ccccc3)c(O)c1)O2	19.4
COc1cc2c(cc1OC)C(=O)/C(=C/c1cccc(O)c1)O2	17.2
CCN(CC)Cc1ccc(/C=C2\Oc3cc(OC)c(OC)cc3C2=O)cc1O	22.7
CCN(Cc1ccc(/C=C2\Oc3cc(OC)c(OC)cc3C2=O)cc1O)Cc1ccccc1OC	9.7

Tested on: not listed separately
Assay: Antioxidant activity assessed as inhibition of AAPH-induced peroxyl radical generation at 5 uM measured as trolox equivalent preincubated for 15 mins followed by AAPH addition measured every 60 secs for 90 mins by ORAC-FL assay
Type: functional
Conditions: not given

Compound	Activity [equiv]
COc1cc2c(cc1OC)C(=O)/C(=C/c1ccc(CN(C)Cc3ccccc3)c(O)c1)O2	1.62
COc1cc2c(cc1OC)C(=O)/C(=C/c1cccc(O)c1)O2	1.51
CCN(CC)Cc1ccc(/C=C2\Oc3cc(OC)c(OC)cc3C2=O)cc1O	2.06
CCN(Cc1ccc(/C=C2\Oc3cc(OC)c(OC)cc3C2=O)cc1O)Cc1ccccc1OC	1.47

Target: Acetylcholinesterase (Electrophorus electricus, UniProt O42275)
Assay: Inhibition of Electrophorus electricus AChE using acetylthiocholine iodide as substrate measured after 15 mins by Ellman's method
Conditions: not given

Sequence of Acetylcholinesterase (Electrophorus electricus, UniProt O42275) (O42275 whole entry): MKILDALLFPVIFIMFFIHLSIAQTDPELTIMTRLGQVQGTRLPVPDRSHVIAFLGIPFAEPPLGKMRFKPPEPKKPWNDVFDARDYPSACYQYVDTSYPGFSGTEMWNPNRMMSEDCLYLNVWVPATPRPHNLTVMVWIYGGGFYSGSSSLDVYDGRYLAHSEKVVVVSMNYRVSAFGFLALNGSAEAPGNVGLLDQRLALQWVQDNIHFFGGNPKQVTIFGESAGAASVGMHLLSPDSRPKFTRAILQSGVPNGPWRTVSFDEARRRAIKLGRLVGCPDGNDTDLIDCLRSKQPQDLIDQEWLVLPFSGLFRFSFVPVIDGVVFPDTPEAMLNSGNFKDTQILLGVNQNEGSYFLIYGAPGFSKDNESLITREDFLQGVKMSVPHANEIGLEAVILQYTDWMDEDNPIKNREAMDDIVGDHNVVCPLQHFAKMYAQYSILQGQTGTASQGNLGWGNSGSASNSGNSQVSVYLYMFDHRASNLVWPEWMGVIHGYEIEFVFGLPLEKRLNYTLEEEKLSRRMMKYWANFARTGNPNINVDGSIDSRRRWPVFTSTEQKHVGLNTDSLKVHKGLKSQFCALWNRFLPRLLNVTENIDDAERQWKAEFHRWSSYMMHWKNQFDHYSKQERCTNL

Compound	IC50 [µM]
COc1cc2c(cc1OC)C(=O)/C(=C/c1ccc(CN(C)Cc3ccccc3)c(O)c1)O2	9.1
COc1cc2c(cc1OC)C(=O)/C(=C/c1cccc(O)c1)O2	36.3
CCN(CC)Cc1ccc(/C=C2\Oc3cc(OC)c(OC)cc3C2=O)cc1O	0.486
CCN(Cc1ccc(/C=C2\Oc3cc(OC)c(OC)cc3C2=O)cc1O)Cc1ccccc1OC	37

Target: T2, Acetylcholinesterase (Rattus norvegicus, UniProt P37136)
T2 sequence (P37136 whole entry): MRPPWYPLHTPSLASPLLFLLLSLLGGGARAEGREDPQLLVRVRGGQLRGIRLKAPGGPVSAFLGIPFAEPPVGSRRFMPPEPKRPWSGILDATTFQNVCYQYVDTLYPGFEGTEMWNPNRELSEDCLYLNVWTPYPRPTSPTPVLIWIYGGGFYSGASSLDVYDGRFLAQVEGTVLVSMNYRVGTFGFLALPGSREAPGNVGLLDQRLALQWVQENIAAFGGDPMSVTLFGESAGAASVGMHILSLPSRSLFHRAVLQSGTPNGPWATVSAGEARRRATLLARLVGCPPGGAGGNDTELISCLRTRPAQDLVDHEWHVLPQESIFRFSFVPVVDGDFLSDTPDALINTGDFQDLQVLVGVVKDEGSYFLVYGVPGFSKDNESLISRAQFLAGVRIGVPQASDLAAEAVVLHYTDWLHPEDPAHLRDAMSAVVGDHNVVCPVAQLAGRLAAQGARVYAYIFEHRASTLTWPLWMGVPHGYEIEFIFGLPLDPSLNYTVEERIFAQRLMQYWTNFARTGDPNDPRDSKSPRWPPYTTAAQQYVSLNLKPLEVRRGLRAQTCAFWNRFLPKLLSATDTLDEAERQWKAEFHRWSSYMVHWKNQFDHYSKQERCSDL
Assay: Inhibition of AChE in rat brain cortex homogenates using acetylthiocholine iodide as substrate in presence of BuChE inhibitor tetraisopropyl pyrophosphoramide measured after 15 mins by Ellman's method
Conditions: not given

Compound	IC50 [µM]
COc1cc2c(cc1OC)C(=O)/C(=C/c1ccc(CN(C)Cc3ccccc3)c(O)c1)O2	20
COc1cc2c(cc1OC)C(=O)/C(=C/c1cccc(O)c1)O2	131
CCN(CC)Cc1ccc(/C=C2\Oc3cc(OC)c(OC)cc3C2=O)cc1O	0.108
CCN(Cc1ccc(/C=C2\Oc3cc(OC)c(OC)cc3C2=O)cc1O)Cc1ccccc1OC	44.9

Target: Acetylcholinesterase (Homo sapiens, UniProt P22303)
Assay: Inhibition of human erythrocyte AChE using acetylthiocholine iodide as substrate measured after 15 mins by Ellman's method
Conditions: not given

Sequence of Acetylcholinesterase (Homo sapiens, UniProt P22303) (P22303 whole entry): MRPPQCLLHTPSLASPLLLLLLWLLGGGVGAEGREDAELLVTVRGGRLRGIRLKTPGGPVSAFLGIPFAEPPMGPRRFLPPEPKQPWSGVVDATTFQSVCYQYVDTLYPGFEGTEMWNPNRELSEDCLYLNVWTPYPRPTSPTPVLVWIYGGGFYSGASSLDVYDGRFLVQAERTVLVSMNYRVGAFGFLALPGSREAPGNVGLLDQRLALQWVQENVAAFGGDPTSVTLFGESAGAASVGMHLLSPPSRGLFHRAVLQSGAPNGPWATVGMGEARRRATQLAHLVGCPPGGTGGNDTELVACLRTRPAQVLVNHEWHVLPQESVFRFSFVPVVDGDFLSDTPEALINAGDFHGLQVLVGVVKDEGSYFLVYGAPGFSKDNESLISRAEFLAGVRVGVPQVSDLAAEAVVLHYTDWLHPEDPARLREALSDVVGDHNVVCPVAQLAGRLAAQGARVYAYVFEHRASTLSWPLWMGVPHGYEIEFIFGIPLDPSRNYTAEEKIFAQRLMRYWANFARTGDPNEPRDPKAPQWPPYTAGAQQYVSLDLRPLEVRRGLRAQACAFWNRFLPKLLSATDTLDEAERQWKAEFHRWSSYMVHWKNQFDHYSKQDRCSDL

Compound	IC50 [µM]
COc1cc2c(cc1OC)C(=O)/C(=C/c1ccc(CN(C)Cc3ccccc3)c(O)c1)O2	26.3
CCN(CC)Cc1ccc(/C=C2\Oc3cc(OC)c(OC)cc3C2=O)cc1O	0.7

Target: Amyloid-beta precursor protein (Homo sapiens) (UniProt P05067)
Assay: Inhibition of self-induced aggregation of HFIP-treated human amyloid beta (1 to 42 residues) at 25 uM after 24 hrs by thioflavin T-based fluorometric assay relative to control
Conditions: not given

Sequence of Amyloid-beta precursor protein (Homo sapiens) (P05067 whole entry, the tested form may be a part): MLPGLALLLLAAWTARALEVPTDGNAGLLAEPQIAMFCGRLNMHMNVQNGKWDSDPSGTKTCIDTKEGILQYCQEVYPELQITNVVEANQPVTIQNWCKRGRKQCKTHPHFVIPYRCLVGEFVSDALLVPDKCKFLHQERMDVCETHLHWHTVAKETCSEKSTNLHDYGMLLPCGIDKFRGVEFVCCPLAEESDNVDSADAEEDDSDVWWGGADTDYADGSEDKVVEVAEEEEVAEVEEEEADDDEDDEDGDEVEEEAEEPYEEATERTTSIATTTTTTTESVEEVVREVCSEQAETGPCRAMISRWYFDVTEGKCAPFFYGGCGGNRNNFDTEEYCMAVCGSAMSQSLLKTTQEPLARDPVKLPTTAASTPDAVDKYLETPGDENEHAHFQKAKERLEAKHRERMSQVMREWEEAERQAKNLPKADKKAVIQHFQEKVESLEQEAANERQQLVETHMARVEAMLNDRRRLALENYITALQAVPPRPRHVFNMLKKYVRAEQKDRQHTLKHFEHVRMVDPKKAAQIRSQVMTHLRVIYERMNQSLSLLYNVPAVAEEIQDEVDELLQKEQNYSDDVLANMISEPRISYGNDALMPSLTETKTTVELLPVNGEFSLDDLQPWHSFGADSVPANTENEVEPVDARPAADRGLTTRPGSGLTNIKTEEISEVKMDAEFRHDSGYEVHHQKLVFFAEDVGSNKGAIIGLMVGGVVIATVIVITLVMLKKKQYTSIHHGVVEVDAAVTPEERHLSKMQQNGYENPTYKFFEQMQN

Compound	inhibition [%]
COc1cc2c(cc1OC)C(=O)/C(=C/c1ccc(CN(C)Cc3ccccc3)c(O)c1)O2	51.5
COc1cc2c(cc1OC)C(=O)/C(=C/c1cccc(O)c1)O2	33.6
CCN(CC)Cc1ccc(/C=C2\Oc3cc(OC)c(OC)cc3C2=O)cc1O	47.5
CCN(Cc1ccc(/C=C2\Oc3cc(OC)c(OC)cc3C2=O)cc1O)Cc1ccccc1OC	74.9

Target: butyrylcholinesterase (BuChE) (Rattus norvegicus, UniProt Q9JKC1)
Assay: Inhibition of BuChE in rat serum at 50 uM using butyrylthiocholine as substrate measured after 15 mins by Ellman's method relative to control
Conditions: probe butyrylthiocholine

Sequence of butyrylcholinesterase (BuChE) (Q9JKC1 whole entry): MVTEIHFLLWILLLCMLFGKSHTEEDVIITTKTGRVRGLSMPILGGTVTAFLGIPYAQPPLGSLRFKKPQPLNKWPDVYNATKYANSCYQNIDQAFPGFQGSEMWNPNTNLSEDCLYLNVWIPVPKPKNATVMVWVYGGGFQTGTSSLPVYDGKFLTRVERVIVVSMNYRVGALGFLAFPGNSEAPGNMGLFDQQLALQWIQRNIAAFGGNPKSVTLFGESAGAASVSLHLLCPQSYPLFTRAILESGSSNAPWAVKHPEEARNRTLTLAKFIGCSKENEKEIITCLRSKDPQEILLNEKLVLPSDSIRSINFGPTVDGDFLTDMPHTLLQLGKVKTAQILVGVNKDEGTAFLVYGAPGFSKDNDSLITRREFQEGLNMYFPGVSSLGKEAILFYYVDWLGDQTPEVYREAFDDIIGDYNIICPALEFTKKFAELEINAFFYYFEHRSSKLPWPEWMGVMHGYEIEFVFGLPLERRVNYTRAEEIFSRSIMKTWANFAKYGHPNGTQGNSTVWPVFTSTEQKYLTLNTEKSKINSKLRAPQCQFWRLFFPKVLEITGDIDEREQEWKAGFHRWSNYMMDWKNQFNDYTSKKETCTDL

Compound	inhibition at 0.25 h, 50 µM [%]
COc1cc2c(cc1OC)C(=O)/C(=C/c1ccc(CN(C)Cc3ccccc3)c(O)c1)O2	< 5
COc1cc2c(cc1OC)C(=O)/C(=C/c1cccc(O)c1)O2	< 5
CCN(CC)Cc1ccc(/C=C2\Oc3cc(OC)c(OC)cc3C2=O)cc1O	< 5
CCN(Cc1ccc(/C=C2\Oc3cc(OC)c(OC)cc3C2=O)cc1O)Cc1ccccc1OC	5.21

Target: T3, Amine oxidase [flavin-containing] B (Homo sapiens, UniProt P27338)
T3 sequence (P27338 whole entry): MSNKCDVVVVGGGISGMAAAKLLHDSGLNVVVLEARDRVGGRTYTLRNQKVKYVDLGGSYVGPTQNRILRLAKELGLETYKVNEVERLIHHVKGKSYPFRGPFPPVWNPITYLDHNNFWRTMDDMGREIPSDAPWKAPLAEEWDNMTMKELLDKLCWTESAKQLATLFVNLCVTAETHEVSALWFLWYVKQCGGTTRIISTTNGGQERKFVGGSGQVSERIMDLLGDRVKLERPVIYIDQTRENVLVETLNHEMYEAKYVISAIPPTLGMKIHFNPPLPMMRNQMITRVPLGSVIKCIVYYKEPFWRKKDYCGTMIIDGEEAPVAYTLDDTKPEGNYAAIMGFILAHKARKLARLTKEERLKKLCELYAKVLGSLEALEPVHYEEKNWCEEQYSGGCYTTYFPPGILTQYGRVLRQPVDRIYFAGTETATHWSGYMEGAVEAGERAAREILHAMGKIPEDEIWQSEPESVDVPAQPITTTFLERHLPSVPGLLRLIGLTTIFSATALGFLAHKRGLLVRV
Assay: Inhibition of recombinant human MAO-B expressed in baculovirus infected BTI insect cells at 10 uM using kynuramine as substrate incubated for 30 mins by fluorescence assay relative to control
Conditions: 0.5 h

Compound	inhibition at 10 µM [%]
COc1cc2c(cc1OC)C(=O)/C(=C/c1ccc(CN(C)Cc3ccccc3)c(O)c1)O2	17.8
COc1cc2c(cc1OC)C(=O)/C(=C/c1cccc(O)c1)O2	37
CCN(CC)Cc1ccc(/C=C2\Oc3cc(OC)c(OC)cc3C2=O)cc1O	7.2
CCN(Cc1ccc(/C=C2\Oc3cc(OC)c(OC)cc3C2=O)cc1O)Cc1ccccc1OC	26.4

Tested on: not listed separately
Assay: Inhibition of Cu2+-mediated aggregation of human amyloid beta (1 to 42 residues) at 25 uM after 24 hrs by thioflavin T-based fluorometric assay relative to control
Type: functional
Conditions: not given

Compound	inhibition [%]
COc1cc2c(cc1OC)C(=O)/C(=C/c1ccc(CN(C)Cc3ccccc3)c(O)c1)O2	70.1
COc1cc2c(cc1OC)C(=O)/C(=C/c1cccc(O)c1)O2	28.9
CCN(CC)Cc1ccc(/C=C2\Oc3cc(OC)c(OC)cc3C2=O)cc1O	23.6
CCN(Cc1ccc(/C=C2\Oc3cc(OC)c(OC)cc3C2=O)cc1O)Cc1ccccc1OC	71.2
